Reference: patent publication EP4725957A1, “GROUP OF CYCLIC ALKALINE LIPOPEPTIDE COMPOUNDS, AND PREPARATION METHOD THEREFOR AND USE THEREOF” (Institute of Medicinal Biotechnology, Chinese Academy of …, priority 2023, dated 2024)
In brackets after ≈: the same amount, converted by molar mass. Bridge positions count the residues as written; N and C are the ends. Square brackets hold non-standard residues; d marks the D form. Peptide text beside a SMILES is read from it. * marks the point of attachment. Heptanoyl(6-Me) = CC(C)CCCCC(=O)*; dOrn = NCCC[C@@H](N)C(=O)O; Nonanoyl = CCCCCCCCC(=O)*; X1 = CC[C@H](C)CCCCC(=O)*; Heptanoyl = CCCCCCC(=O)*; Orn = NCCC[C@H](N)C(=O)O; dDap = NC[C@@H](N)C(=O)O; Dab = NCC[C@H](N)C(=O)O

Key:
Format in all cases: cell-based
[1] = system: Acinetobacter baumannii ABA19-1; settings: ABA19-1
Method in brief: (§1)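 The MIC value comes from CLSI broth microdilution after 16-20 h at 35-37°C. Cyclic lipopeptides in Mueller-Hinton broth spanned 64 to 0.03 mg/L final, with each well carrying (2-4) × 10^5 CFU/mL.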

[2] = system: Acinetobacter baumannii NCTC 13304 (OXA-27); settings: NCTC 13304
Method in brief: as §1

[3] = system: Escherichia coli ATCC BAA-2340 (KPC); settings: ATCC BAA-2340
Method in brief: as §1

[4] = system: Escherichia coli ATCC BAA-2523; settings: ATCC BAA-2523
Method in brief: as §1

[5] = system: Klebsiella pneumoniae ATCC BAA-1705 (KPC); settings: ATCC BAA-1705
Method in brief: as §1

[6] = system: Klebsiella pneumoniae KPN+19-15; settings: KPN+19-15
Method in brief: as §1

[7] = system: Pseudomonas aeruginosa ATCC 27853; settings: ATCC 27853
Method in brief: as §1

[8] = system: Pseudomonas aeruginosa PAE19-3; settings: PAE19-3
Method in brief: as §1

[9] = Nephrotoxicity assay: in vitro cytotoxicity of HK-2 cells by CCK-8 assay; settings: human, HK-2 cells (human renal), 72 h incubation with drug-containing medium
Method in brief: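 Compounds in sterile water, diluted to final 500, 250, 200, 100, 50, 25 and 12.5 µg/mL, were applied for 72 h to human HK-2 kidney cells. Absorbance at 450 nm after 3 h CCK-8 gave viability against untreated wells, and IC50 came from logarithmic regression; three replicates.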

| Compound | MIC [1] [mg/L] | MIC [2] [mg/L] | MIC [3] [mg/L] | MIC [4] [mg/L] | MIC [5] [mg/L] | MIC [6] [mg/L] | MIC [7] [mg/L] | MIC [8] [mg/L] | IC50 at 72 h [9] [mg/L] |
| --- | --- | --- | --- | --- | --- | --- | --- | --- | --- |
| CCCCCCCCC(=O)N[C@@H](CCN)C(=O)N[C@H](C(=O)N[C@H](CO)C(=O)N[C@H]1CCNC(=O)[C@H]([C@@H](C)O)NC(=O)[C@H](CCN)NC(=O)[C@H](CCCN)NC(=O)[C@H]([C@@H](C)O)NC(=O)[C@@H](Cc2ccccc2)NC(=O)[C@H](CCN)NC1=O)[C@@H](C)O [Compound 80, Nonanoyl-Dab-Thr-D-Ser-ring(4-10)[Dab-Dab-D-Phe-Thr-Orn-Dab-Thr]] (Nonanoyl-[Dab]T[dS][Dab][Dab][dF]T[Orn][Dab]T; lactam 4-C) | 0.06 (≈ 0.0503 µM) | 0.03 (≈ 0.0252 µM) | 0.06 (≈ 0.0503 µM) | 0.06 (≈ 0.0503 µM) | 0.25 (≈ 0.21 µM) | 0.5 (≈ 0.419 µM) | >64 | 64 (≈ 53.7 µM) | 288 ± 19.5 (≈ 241 µM) |
| CCCCCCC(=O)N[C@@H](CCN)C(=O)N[C@H](C(=O)N[C@H](CCCN)C(=O)N[C@H]1CCNC(=O)[C@H]([C@@H](C)O)NC(=O)[C@H](CCN)NC(=O)[C@H](CCN)NC(=O)[C@H](CC(C)C)NC(=O)[C@@H](Cc2ccccc2)NC(=O)[C@H](CCN)NC1=O)[C@@H](C)O [Compound 44, Heptanoyl-Dab-Thr-D-Orn-ring(4-10)[Dab-Dab-D-Phe-Leu-Dab-Dab-Thr]] (Heptanoyl-[Dab]T[dOrn][Dab][Dab][dF]L[Dab][Dab]T; lactam 4-C) | 0.125 (≈ 0.105 µM) | 0.06 (≈ 0.0504 µM) | 0.06 (≈ 0.0504 µM) | 0.06 (≈ 0.0504 µM) | 0.06 (≈ 0.0504 µM) | 0.125 (≈ 0.105 µM) | 0.5 (≈ 0.42 µM) | 2 (≈ 1.68 µM) | 308 ± 9.7 (≈ 259 µM) |
| CC(C)CCCCC(=O)N[C@@H](CCN)C(=O)N[C@H](C(=O)N[C@@H](CCCN)C(=O)N[C@H]1CCNC(=O)[C@H]([C@@H](C)O)NC(=O)[C@H](CCN)NC(=O)[C@H](CCN)NC(=O)[C@H](CC(C)C)NC(=O)[C@@H](Cc2ccccc2)NC(=O)[C@H](CCN)NC1=O)[C@@H](C)O [Compound 47, 6-methylheptanoyl-Dab-Thr-Orn-ring(4-10)[Dab-Dab-D-Phe-Leu-Dab-Dab-Thr]] ({Heptanoyl(6-Me)}-[Dab]T[Orn][Dab][Dab][dF]L[Dab][Dab]T; lactam 4-C) | 0.125 (≈ 0.104 µM) | 0.06 (≈ 0.0499 µM) | 0.03 (≈ 0.0249 µM) | 0.03 (≈ 0.0249 µM) | ≤0.03 | ≤0.03 | ≤0.03 | 0.25 (≈ 0.208 µM) | 358 ± 11.2 (≈ 297 µM) |
| CCCCCCC(=O)N[C@@H](CCN)C(=O)N[C@H](C(=O)N[C@@H](CCCN)C(=O)N[C@H]1CCNC(=O)[C@H]([C@@H](C)O)NC(=O)[C@H](CCN)NC(=O)[C@H](CCN)NC(=O)[C@H](CC(C)C)NC(=O)[C@@H](Cc2ccccc2)NC(=O)[C@H](CCN)NC1=O)[C@@H](C)O [Compound 49, Heptanoyl-Dab-Thr-Orn-ring(4-10)[Dab-Dab-D-Phe-Leu-Dab-Dab-Thr]] (Heptanoyl-[Dab]T[Orn][Dab][Dab][dF]L[Dab][Dab]T; lactam 4-C) | 0.125 (≈ 0.105 µM) | 0.06 (≈ 0.0504 µM) | 0.03 (≈ 0.0252 µM) | 0.03 (≈ 0.0252 µM) | 0.03 (≈ 0.0252 µM) | 0.03 (≈ 0.0252 µM) | 0.03 (≈ 0.0252 µM) | 0.5 (≈ 0.42 µM) | 367 ± 8.7 (≈ 309 µM) |
| CCCCCCC(=O)N[C@@H](CCN)C(=O)N[C@H](C(=O)N[C@H](CN)C(=O)N[C@H]1CCNC(=O)[C@H]([C@@H](C)O)NC(=O)[C@H](CCN)NC(=O)[C@H](CCN)NC(=O)[C@H](CC(C)C)NC(=O)[C@@H](Cc2ccccc2)NC(=O)[C@H](CCN)NC1=O)[C@@H](C)O [Compound 34, Heptanoyl-Dab-Thr-D-Dap-ring(4-10)[Dab-Dab-D-Phe-Leu-Dab-Dab-Thr]] (Heptanoyl-[Dab]T[dDap][Dab][Dab][dF]L[Dab][Dab]T; lactam 4-C) | 0.06 (≈ 0.0517 µM) | 0.06 (≈ 0.0517 µM) | 0.06 (≈ 0.0517 µM) | 0.06 (≈ 0.0517 µM) | 0.06 (≈ 0.0517 µM) | 0.06 (≈ 0.0517 µM) | 0.06 (≈ 0.0517 µM) | 0.5 (≈ 0.431 µM) | 298 ± 3.7 (≈ 256 µM) |
| CC[C@H](C)CCCCC(=O)N[C@@H](CCCN)C(=O)N[C@H](C(=O)N[C@H](CO)C(=O)N[C@H]1CCNC(=O)[C@H]([C@@H](C)O)NC(=O)[C@H](CCN)NC(=O)[C@H](CCN)NC(=O)[C@H]([C@@H](C)O)NC(=O)[C@@H](Cc2ccccc2)NC(=O)[C@H](CCN)NC1=O)[C@@H](C)O [Compound 56, (S)-6-methyloctanoyl-Orn-Thr-D-Ser-ring(4-10)[Dab-Dab-D-Phe-Thr-Dab-Dab-Thr]] (X1-[Orn]T[dS][Dab][Dab][dF]T[Dab][Dab]T; lactam 4-C) | 0.25 (≈ 0.21 µM) | 0.25 (≈ 0.21 µM) | 0.125 (≈ 0.105 µM) | 0.125 (≈ 0.105 µM) | 0.25 (≈ 0.21 µM) | 0.5 (≈ 0.419 µM) | 64 (≈ 53.7 µM) | 4 (≈ 3.35 µM) | > 500 |
